#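 Step 1: Grow cells in 96-well plates. Step 2: Expose to compound for 48 hours at 5 concentrations. Step 3: Interpolate endpoints linearly; if unreached, use highest concentration. GI50: concentration for 50% inhibition of growth.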 The source made the active and inactive calls. Rule as the data show it: active = GI50 up to about 1.1 µM and inactive = higher.
# Experiments:
# Assay in all cases: growth of human tumour cells (NCI), 48 h
# A498 = test system: A498
# SNB-75 = test system: SNB-75
# SF-268 = test system: SF-268
# UACC-257 = test system: UACC-257
# RXF 393 = test system: RXF 393
# MOLT-4 = test system: MOLT-4
# CCRF-CEM = test system: CCRF-CEM
# 786-0 = test system: 786-0
# SK-MEL-5 = test system: SK-MEL-5
# DU-145 = test system: DU-145
# HCC 2998 = test system: HCC 2998
# UACC-62 = test system: UACC-62
# EKVX = test system: EKVX
# OVCAR-8 = test system: OVCAR-8
# COLO 205 = test system: COLO 205
# MDA-MB-435 = test system: MDA-MB-435
# RPMI-8226 = test system: RPMI-8226
# HOP-62 = test system: HOP-62
# U-251 = test system: U-251
# SNB-19 = test system: SNB-19
# M14 = test system: M14
# TK-10 = test system: TK-10
# BT-549 = test system: BT-549
# ACHN = test system: ACHN
# HCT-116 = test system: HCT-116
# MCF7 = test system: MCF7
# LOX IMVI = test system: LOX IMVI
# CAKI-1 = test system: CAKI-1
# SR = test system: SR
# HT-29 = test system: HT-29
# SK-OV-3 = test system: SK-OV-3
# HOP-92 = test system: HOP-92
# MDA-MB-231 = test system: MDA-MB-231
# SF-295 = test system: SF-295
# SK-MEL-28 = test system: SK-MEL-28
# HCT-15 = test system: HCT-15
# NCI-H460 = test system: NCI-H460
# K562 = test system: K562
# UO-31 = test system: UO-31
# T47D = test system: T47D
# KM12 = test system: KM12
# SF-539 = test system: SF-539
# PC-3 = test system: PC-3
# IGROV-1 = test system: IGROV-1
# NCI-H23 = test system: NCI-H23
# SW-620 = test system: SW-620
# HL-60 = test system: HL-60
# NCI-H226 = test system: NCI-H226
# NCI/ADR-RES = test system: NCI/ADR-RES
# SK-MEL-2 = test system: SK-MEL-2
# Hs-578T = test system: Hs-578T
# OVCAR-4 = test system: OVCAR-4
# OVCAR-5 = test system: OVCAR-5
# Malme-3M = test system: Malme-3M
# A549 = test system: A549
# SN12C = test system: SN12C
# OVCAR-3 = test system: OVCAR-3
# NCI-H522 = test system: NCI-H522
smiles,measurement,setting,value
NNC(=O)c1cccc2c1Oc1ccccc1S2,GI50,A498,18.2 µM (inactive)
same,GI50,SNB-75,50.6 µM (inactive)
same,GI50,SF-268,76.2 µM (inactive)
same,GI50,UACC-257,> 100 µM (inactive)
same,GI50,RXF 393,59.3 µM (inactive)
same,GI50,MOLT-4,55 µM (inactive)
same,GI50,CCRF-CEM,63.1 µM (inactive)
same,GI50,786-0,> 100 µM (inactive)
same,GI50,SK-MEL-5,> 100 µM (inactive)
same,GI50,DU-145,69 µM (inactive)
same,GI50,HCC 2998,> 100 µM (inactive)
same,GI50,UACC-62,> 100 µM (inactive)
same,GI50,EKVX,23.8 µM (inactive)
same,GI50,OVCAR-8,98.6 µM (inactive)
same,GI50,COLO 205,> 100 µM (inactive)
same,GI50,MDA-MB-435,> 100 µM (inactive)
same,GI50,RPMI-8226,> 100 µM (inactive)
same,GI50,HOP-62,95.9 µM (inactive)
same,GI50,U-251,> 100 µM (inactive)
same,GI50,SNB-19,> 100 µM (inactive)
same,GI50,M14,> 100 µM (inactive)
same,GI50,TK-10,> 100 µM (inactive)
same,GI50,BT-549,97.3 µM (inactive)
same,GI50,ACHN,> 100 µM (inactive)
same,GI50,HCT-116,> 100 µM (inactive)
same,GI50,MCF7,> 100 µM (inactive)
same,GI50,LOX IMVI,88.3 µM (inactive)
same,GI50,CAKI-1,> 100 µM (inactive)
same,GI50,SR,> 100 µM (inactive)
same,GI50,HT-29,> 100 µM (inactive)
same,GI50,SK-OV-3,65.2 µM (inactive)
same,GI50,HOP-92,> 100 µM (inactive)
same,GI50,MDA-MB-231,> 100 µM (inactive)
same,GI50,SF-295,77.3 µM (inactive)
same,GI50,SK-MEL-28,> 100 µM (inactive)
same,GI50,HCT-15,> 100 µM
same,GI50,NCI-H460,> 100 µM (inactive)
same,GI50,K562,> 100 µM (inactive)
same,GI50,UO-31,> 100 µM (inactive)
same,GI50,T47D,95.1 µM (inactive)
same,GI50,KM12,> 100 µM (inactive)
same,GI50,SF-539,> 100 µM (inactive)
same,GI50,PC-3,> 100 µM (inactive)
same,GI50,IGROV-1,> 100 µM (inactive)
same,GI50,NCI-H23,> 100 µM (inactive)
same,GI50,SW-620,> 100 µM (inactive)
same,GI50,HL-60,79.6 µM (inactive)
same,GI50,NCI-H226,1.23 µM (inactive)
same,GI50,NCI/ADR-RES,83.9 µM (inactive)
same,GI50,SK-MEL-2,> 100 µM (inactive)
same,GI50,Hs-578T,31.6 µM (inactive)
same,GI50,OVCAR-4,> 100 µM (inactive)
CN(CCCNC(=O)c1nn(C)c2c1Cc1ccccc1-2)CCCNC(=O)c1nn(C)c2c1Cc1ccccc1-2,GI50,A498,17 µM (inactive)
same,GI50,SNB-75,15.2 µM (inactive)
same,GI50,SF-268,19.2 µM (inactive)
same,GI50,UACC-257,12.1 µM (inactive)
same,GI50,RXF 393,13.9 µM (inactive)
same,GI50,MOLT-4,4.73 µM (inactive)
same,GI50,CCRF-CEM,2.18 µM (inactive)
same,GI50,786-0,10.7 µM (inactive)
same,GI50,SK-MEL-5,13.5 µM (inactive)
same,GI50,DU-145,16.9 µM (inactive)
same,GI50,HCC 2998,8.22 µM (inactive)
same,GI50,UACC-62,19.4 µM (inactive)
same,GI50,EKVX,19.2 µM (inactive)
same,GI50,OVCAR-5,18.3 µM (inactive)
same,GI50,OVCAR-8,19.6 µM (inactive)
same,GI50,Malme-3M,20.5 µM (inactive)
same,GI50,COLO 205,13.7 µM (inactive)
same,GI50,MDA-MB-435,10.8 µM (inactive)
same,GI50,RPMI-8226,13.3 µM (inactive)
same,GI50,HOP-62,10.8 µM (inactive)
same,GI50,U-251,12.5 µM (inactive)
same,GI50,SNB-19,9.53 µM (inactive)
same,GI50,M14,6.15 µM (inactive)
same,GI50,TK-10,19.1 µM (inactive)
same,GI50,BT-549,21 µM (inactive)
same,GI50,ACHN,16.7 µM (inactive)
same,GI50,HCT-116,14.3 µM (inactive)
same,GI50,MCF7,15 µM (inactive)
same,GI50,LOX IMVI,2.49 µM (inactive)
same,GI50,A549,16.5 µM (inactive)
same,GI50,CAKI-1,18.7 µM (inactive)
same,GI50,SR,2.99 µM (inactive)
same,GI50,HT-29,13.3 µM (inactive)
same,GI50,SK-OV-3,16 µM (inactive)
same,GI50,SN12C,16.5 µM (inactive)
same,GI50,OVCAR-3,16.1 µM (inactive)
same,GI50,HOP-92,15.6 µM (inactive)
same,GI50,MDA-MB-231,19.3 µM (inactive)
same,GI50,SF-295,18.2 µM (inactive)
same,GI50,SK-MEL-28,20.1 µM (inactive)
same,GI50,HCT-15,17.7 µM
same,GI50,NCI-H460,18 µM (inactive)
same,GI50,K562,7.94 µM (inactive)
same,GI50,UO-31,0.614 µM (active)
same,GI50,T47D,22.5 µM (inactive)
same,GI50,KM12,16.2 µM (inactive)
same,GI50,SF-539,16.4 µM (inactive)
same,GI50,PC-3,16.2 µM (inactive)
same,GI50,IGROV-1,15.3 µM (inactive)
same,GI50,NCI-H23,21.9 µM (inactive)
same,GI50,SW-620,10.1 µM (inactive)
same,GI50,HL-60,5.28 µM (inactive)
same,GI50,NCI-H522,21.8 µM (inactive)
same,GI50,NCI/ADR-RES,24.4 µM (inactive)
same,GI50,SK-MEL-2,16 µM (inactive)
same,GI50,Hs-578T,20.5 µM (inactive)
same,GI50,OVCAR-4,16.3 µM (inactive)

# — ChEMBL document CHEMBL1201862, “PubChem BioAssay data set” (2004)
